ChEMBL document CHEMBL4346712, “Research progress in the biological activities of 3,4,5-trimethoxycinnamic acid (TMCA) derivatives” (Eur J Med Chem, 2019)
≈ marks a conversion by molar mass, not a printed value. Each block holds one compound with its values, some of them ahead of it.

Key:
[1] = Growth inhibition of HUVEC at 5 uM relative to control; assay type: cell-based; conditions: human, HUVEC cells; read-out: GI
[2] = biological target: High mobility group protein B1 (Homo sapiens) (UniProt P09429); test: Inhibition of HMGB1 (unknown origin) at 10 uM by ELISA relative to control
Chain of High mobility group protein B1 (Homo sapiens) (P09429 whole entry): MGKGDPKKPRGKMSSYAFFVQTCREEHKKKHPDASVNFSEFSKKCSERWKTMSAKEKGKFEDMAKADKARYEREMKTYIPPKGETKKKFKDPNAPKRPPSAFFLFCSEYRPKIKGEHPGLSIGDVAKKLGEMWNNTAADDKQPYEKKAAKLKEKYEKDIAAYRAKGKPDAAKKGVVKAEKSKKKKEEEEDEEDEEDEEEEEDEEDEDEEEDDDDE

[3] = species on record: Mus musculus; test: Inhibition of HMGB1 in mouse model relative to control; assay type: functional
[4] = Growth inhibition of HUVEC; assay type: cell-based; conditions: human, HUVEC cells
[5] = tested on: Platelet; test: Antiplatelet activity in rabbit platelet rich plasma assessed as inhibition of collagen-induced platelet aggregation at 300 uM preincubated for 3 mins followed by collagen addition measured after 10 mins relative to control; assay type: functional; conditions: Oryctolagus cuniculus
[6] = tested on: Platelet; test: Antiplatelet activity in rabbit platelet rich plasma assessed as inhibition of arachidonic acid-induced platelet aggregation at 300 uM preincubated for 3 mins followed by arachidonic acid addition measured after 10 mins relative to control; assay type: functional; conditions: Oryctolagus cuniculus
[7] = tested on: Platelet; test: Antiplatelet activity in rabbit platelet rich plasma assessed as inhibition of PAF-induced platelet aggregation at 300 uM preincubated for 3 mins followed by PAF addition measured after 10 mins relative to control; assay type: functional; conditions: Oryctolagus cuniculus
[8] = tested on: Platelet; test: Antiplatelet activity in rabbit platelet rich plasma assessed as inhibition of collagen-induced platelet aggregation at 150 uM preincubated for 3 mins followed by collagen addition measured after 10 mins relative to control; assay type: functional; conditions: Oryctolagus cuniculus
[9] = tested on: Platelet; test: Antiplatelet activity in rabbit platelet rich plasma assessed as inhibition of arachidonic acid-induced platelet aggregation at 150 uM preincubated for 3 mins followed by arachidonic acid addition measured after 10 mins relative to control; assay type: functional; conditions: Oryctolagus cuniculus
[10] = tested on: Platelet; test: Antiplatelet activity in rabbit platelet rich plasma assessed as inhibition of PAF-induced platelet aggregation at 150 uM preincubated for 3 mins followed by PAF addition measured after 10 mins relative to control; assay type: functional; conditions: Oryctolagus cuniculus
[11] = tested on: Candida tropicalis; test: Antifungal activity against Candida tropicalis ATCC 750 after 24 hrs by CLSI broth microdilution method; assay type: functional, organism-based; conditions: ATCC 750, 24 h
[12] = tested on: Pichia kudriavzevii; test: Antifungal activity against Candida krusei ATCC 6258 after 24 hrs by CLSI broth microdilution method; assay type: functional, organism-based; conditions: ATCC 6258, 24 h
[13] = Cytotoxicity against BHK21 cells assessed as reduction in cell viability after 48 hrs by MTT assay; assay type: cell-based, Mesocricetus auratus, BHK-21; conditions: hamster
[14] = Selectivity index, ratio of CC50 for BHK21 cells to IC50 for Candida tropicalis ATCC 750; assay type: toxicity; conditions: hamster, read-out: Ratio CC50/IC50
[15] = Selectivity index, ratio of CC50 for BHK21 cells to IC50 for Candida krusei ATCC 6258; assay type: toxicity; conditions: hamster, read-out: Ratio CC50/IC50
[16] = tested on: EL4; test: Antitumor activity against mouse EL4 cells by MTT assay
[17] = tested on: CPAE; test: Cytotoxic activity against cow CPAE cells by MTT assay; conditions: Bos taurus
[18] = tested on: Candida albicans; test: Antifungal activity against Candida albicans ATCC 10231 after 24 hrs by CLSI broth microdilution method; assay type: functional, organism-based; conditions: ATCC 10231, 24 h
[19] = tested on: Nakaseomyces glabratus; test: Antifungal activity against Candida glabrata ATCC 90030 after 24 hrs by CLSI broth microdilution method; assay type: functional, organism-based; conditions: ATCC 90030, 24 h
[20] = tested on: Candida parapsilosis; test: Antifungal activity against Candida parapsilosis ATCC 22019 after 24 hrs by CLSI broth microdilution method; assay type: functional, organism-based; conditions: Lodderomyces parapsilosis, ATCC 22019, 24 h
[21] = tested on: Staphylococcus aureus; test: Antibacterial activity against Staphylococcus aureus ATCC 6538 after 24 hrs by CLSI broth microdilution method; assay type: functional, organism-based; conditions: ATCC 6538, 24 h
[22] = tested on: Platelet; test: Antiplatelet activity in rabbit platelet rich plasma assessed as inhibition of thrombin-induced platelet aggregation at 300 uM preincubated for 3 mins followed by thrombin addition measured after 10 mins relative to control; assay type: functional; conditions: Oryctolagus cuniculus
[23] = Selectivity index, ratio of CC50 for BHK21 cells to IC50 for Candida albicans ATCC 10231; assay type: toxicity; conditions: hamster, read-out: Ratio CC50/IC50
[24] = Selectivity index, ratio of CC50 for BHK21 cells to IC50 for Candida glabrata ATCC 90030; assay type: toxicity; conditions: hamster, read-out: Ratio CC50/IC50
[25] = Selectivity index, ratio of CC50 for BHK21 cells to IC50 for Candida parapsilosis ATCC 22019; assay type: toxicity; conditions: hamster, read-out: Ratio CC50/IC50
[26] = Selectivity index, ratio of CC50 for BHK21 cells to IC50 for Staphylococcus aureus ATCC 6538; assay type: toxicity; conditions: hamster, read-out: Ratio CC50/IC50
[27] = tested on: Staphylococcus aureus; test: Potency index, ratio of piplartine IC50 to test compound IC50 for Staphylococcus aureus ATCC 6538; assay type: functional
[28] = tested on: Platelet; test: Antiplatelet activity in rabbit platelet rich plasma assessed as inhibition of ADP-induced platelet aggregation at 30 ug/ml relative to control; assay type: functional; conditions: Oryctolagus cuniculus
[29] = tested on: Platelet; test: Antiplatelet activity in rabbit platelet rich plasma assessed as inhibition of PAF-induced platelet aggregation at 50 ug/ml relative to control; assay type: functional; conditions: Oryctolagus cuniculus
[30] = biological target: Platelet-activating factor receptor (Homo sapiens) (UniProt P25105); test: Inhibition of PAF receptor (unknown origin) assessed as reduction in receptor to rabbit platelet binding at 20 ug/ml relative to control
Chain of Platelet-activating factor receptor (Homo sapiens) (P25105 whole entry): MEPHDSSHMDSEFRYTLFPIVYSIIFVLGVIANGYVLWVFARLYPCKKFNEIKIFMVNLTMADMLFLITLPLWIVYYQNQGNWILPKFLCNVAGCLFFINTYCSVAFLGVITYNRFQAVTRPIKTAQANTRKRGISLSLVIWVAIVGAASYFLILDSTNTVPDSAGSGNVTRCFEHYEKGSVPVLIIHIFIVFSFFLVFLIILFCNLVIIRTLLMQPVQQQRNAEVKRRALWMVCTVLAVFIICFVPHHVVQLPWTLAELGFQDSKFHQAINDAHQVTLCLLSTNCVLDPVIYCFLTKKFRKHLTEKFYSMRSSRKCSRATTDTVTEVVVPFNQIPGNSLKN

[31] = Cytotoxicity against […] B16 cells; assay type: functional, cell-based
[32] = biological target: T1, Bifunctional epoxide hydrolase 2 (Homo sapiens, UniProt P34913); test: Competitive inhibition of soluble epoxide hydrolase (unknown origin)
T1 sequence (P34913 whole entry): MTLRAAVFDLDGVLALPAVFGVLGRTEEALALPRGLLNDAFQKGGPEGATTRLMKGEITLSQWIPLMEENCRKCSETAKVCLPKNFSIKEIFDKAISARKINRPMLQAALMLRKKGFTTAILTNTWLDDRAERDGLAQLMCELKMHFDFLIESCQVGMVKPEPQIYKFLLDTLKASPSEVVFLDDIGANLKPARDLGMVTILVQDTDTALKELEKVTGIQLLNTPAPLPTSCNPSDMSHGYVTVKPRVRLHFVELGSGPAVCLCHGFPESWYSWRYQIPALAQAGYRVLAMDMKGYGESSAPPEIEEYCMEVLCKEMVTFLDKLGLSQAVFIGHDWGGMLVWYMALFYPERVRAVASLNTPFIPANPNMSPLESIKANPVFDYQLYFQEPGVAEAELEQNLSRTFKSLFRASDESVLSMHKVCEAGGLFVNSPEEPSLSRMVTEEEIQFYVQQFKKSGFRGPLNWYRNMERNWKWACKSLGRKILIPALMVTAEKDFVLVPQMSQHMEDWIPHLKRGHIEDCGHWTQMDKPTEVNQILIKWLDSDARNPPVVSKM

[33] = biological target: T2, Bifunctional epoxide hydrolase 2 (Homo sapiens) (UniProt P34913); test: Competitive inhibition of soluble epoxide hydrolase (unknown origin) at 100 uM relative to control
T2 sequence (whole entry): T1 sequence (P34913 whole entry)

[34] = biological target: 5-hydroxytryptamine receptor 6 (Homo sapiens, UniProt P50406); test: Displacement of [3H]LSD from human 5-HT6 receptor expressed in CHO-K1 cell membranes after 60 mins
Chain of 5-hydroxytryptamine receptor 6 (P50406 whole entry): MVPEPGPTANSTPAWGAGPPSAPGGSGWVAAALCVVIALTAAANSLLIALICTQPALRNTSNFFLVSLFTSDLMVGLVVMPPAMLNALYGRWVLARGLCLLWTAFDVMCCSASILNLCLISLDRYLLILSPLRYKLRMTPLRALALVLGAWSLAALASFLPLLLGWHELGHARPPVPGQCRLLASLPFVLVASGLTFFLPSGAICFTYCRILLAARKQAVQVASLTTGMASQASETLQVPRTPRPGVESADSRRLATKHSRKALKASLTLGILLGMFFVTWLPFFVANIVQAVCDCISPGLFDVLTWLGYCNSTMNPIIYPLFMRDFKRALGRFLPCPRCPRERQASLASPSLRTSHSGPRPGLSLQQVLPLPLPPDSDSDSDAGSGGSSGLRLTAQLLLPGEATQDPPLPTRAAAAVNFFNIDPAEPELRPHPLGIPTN

[35] = biological target: 5-hydroxytryptamine receptor 7 (Homo sapiens, UniProt P34969); test: Displacement of [3H]LSD from human 5-HT7 receptor expressed in CHO-K1 cell membranes after 60 mins
Chain of 5-hydroxytryptamine receptor 7 (P34969 whole entry): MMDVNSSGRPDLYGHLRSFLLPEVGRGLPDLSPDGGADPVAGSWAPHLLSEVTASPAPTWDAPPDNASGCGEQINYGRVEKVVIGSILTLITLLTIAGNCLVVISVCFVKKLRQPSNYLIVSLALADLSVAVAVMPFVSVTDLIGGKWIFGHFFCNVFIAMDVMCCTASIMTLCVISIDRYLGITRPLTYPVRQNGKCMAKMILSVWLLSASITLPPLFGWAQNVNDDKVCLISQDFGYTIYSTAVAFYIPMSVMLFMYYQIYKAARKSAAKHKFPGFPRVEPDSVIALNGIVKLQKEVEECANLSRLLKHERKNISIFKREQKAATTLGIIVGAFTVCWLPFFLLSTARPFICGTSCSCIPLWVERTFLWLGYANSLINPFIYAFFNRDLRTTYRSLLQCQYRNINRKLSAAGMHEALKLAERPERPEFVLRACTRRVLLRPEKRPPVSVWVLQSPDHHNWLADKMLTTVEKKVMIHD

[36] = biological target: Sodium-dependent serotonin transporter (Homo sapiens, UniProt P31645); test: Displacement of [3H]Imipramine from human 5-HT transporter expressed in HEK-293 cell membranes after 30 mins
Chain of Sodium-dependent serotonin transporter (P31645 whole entry): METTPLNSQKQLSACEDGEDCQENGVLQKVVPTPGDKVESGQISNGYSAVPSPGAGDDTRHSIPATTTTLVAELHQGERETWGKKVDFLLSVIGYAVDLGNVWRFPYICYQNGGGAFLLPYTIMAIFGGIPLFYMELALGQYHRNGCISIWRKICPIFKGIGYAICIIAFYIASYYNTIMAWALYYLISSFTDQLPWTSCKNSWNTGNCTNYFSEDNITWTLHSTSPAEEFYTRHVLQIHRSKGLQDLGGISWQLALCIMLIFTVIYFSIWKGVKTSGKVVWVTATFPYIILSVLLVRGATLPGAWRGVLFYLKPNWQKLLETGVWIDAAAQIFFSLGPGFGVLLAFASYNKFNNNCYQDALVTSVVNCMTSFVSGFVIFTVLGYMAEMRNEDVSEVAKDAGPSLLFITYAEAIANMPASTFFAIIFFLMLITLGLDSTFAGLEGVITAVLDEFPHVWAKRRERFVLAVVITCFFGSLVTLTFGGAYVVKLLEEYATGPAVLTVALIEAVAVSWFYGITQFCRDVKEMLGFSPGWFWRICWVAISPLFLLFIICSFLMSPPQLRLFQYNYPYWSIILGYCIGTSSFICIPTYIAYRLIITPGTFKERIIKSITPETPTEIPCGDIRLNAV

[37] = tested on: Mus musculus; test: Antinarcotic activity in morphine-dependent C57BL/6 mouse assessed as inhibition of naloxone-induced jumping behavior in mouse at 5 mg/kg , ip after 30 mins relative to control; assay type: functional; conditions: C57BL/6, ip, 0.5 h

SMILES: COc1cc(/C=C/C(=O)Nc2ccc(NC(=O)[C@@H](O)[C@H](N)Cc3ccccc3)cc2)cc(OC)c1OC
inhibition at 5 µM [1]: 93%

SMILES: COc1cc(/C=C/C(=O)Oc2ccc3[nH]c4ccccc4c3c2)cc(OC)c1OC
inhibition [2]: 70.2%
inhibition (INH) [3]: 58.9%

SMILES: COc1cc(/C=C/C(=O)Nc2ccc(NC(=O)[C@@H](O)[C@H](N)CCc3ccccc3)cc2)cc(OC)c1OC
GI50 [4]: 0.85 µM
inhibition at 5 µM [1]: > 98%

SMILES: COc1cc(/C=C/C(=O)N2CC(C)CC(C)C2)cc(OC)c1OC (stereo not drawn)
inhibition at 300 µM [5]: 98.6%
inhibition at 300 µM [6]: 100%
inhibition at 300 µM [7]: 94.8%
inhibition at 150 µM [8]: 97.2%
inhibition at 150 µM [9]: 100%
inhibition at 150 µM [10]: 56.9%

SMILES: COc1cc(/C=C/C(=O)N2CCOCC2)cc(OC)c1OC
IC50 [11]: 97.7 µM
IC50 [12]: 48.8 µM
CC50 at 48 h [13]: 186 µM
selectivity ratio [14]: 1.89
selectivity ratio [15]: 3.79

SMILES: COc1cc(/C=C/C(=O)O[C@@H]2CC[C@]3(CO3)[C@@H]([C@@]3(C)O[C@@H]3CC=C(C)C)[C@@H]2OC)cc(OC)c1OC
IC50 [16]: 0.15 mg/L (≈ 0.298 µM)
IC50 [17]: 0.03 mg/L (≈ 0.0597 µM)

SMILES: COc1cc(/C=C/C(=O)N2CCC=CC2=O)cc(OC)c1OC [PIPLARTINE]
IC50 [18]: 94.6 µM
IC50 [12]: 189 µM
IC50 [19]: 189 µM
IC50 [20]: 94.6 µM
IC50 [21]: 315 µM
CC50 at 48 h [13]: 40.1 µM
inhibition at 300 µM [5]: 100%
inhibition at 300 µM [6]: 100%
inhibition at 300 µM [7]: 100%
inhibition at 300 µM [22]: 23.5%
selectivity ratio [23]: 0.42
selectivity ratio [15]: 0.21
selectivity ratio [24]: 0.21
selectivity ratio [25]: 0.42
selectivity ratio [26]: 0.12
inhibition at 150 µM [8]: 100%
inhibition at 150 µM [9]: 76.4%
inhibition at 150 µM [10]: 100%

SMILES: O=C(/C=C/c1ccccc1)NNC(=O)c1ccccc1
IC50 [18]: 376 µM
IC50 [11]: 376 µM
IC50 [19]: 376 µM
IC50 [20]: 376 µM
IC50 [21]: 85.2 µM
CC50 at 48 h [13]: 232 µM
selectivity ratio [23]: 0.61
selectivity ratio [14]: 0.61
selectivity ratio [24]: 0.61
selectivity ratio [25]: 0.61
selectivity ratio [26]: 2.71
Ratio IC50 [27]: 3

SMILES: COc1ccc(CCNC(=O)/C=C/c2cc(OC)c(OC)c(OC)c2)cc1
inhibition at 30 µg/mL [28]: 29.1%
inhibition at 50 µg/mL [29]: 39.3%
inhibition [30]: 19%

SMILES: COc1cc2oc(=O)cc(COC(=O)/C=C/c3cc(OC)c(OC)c(OC)c3)c2cc1OC
IC50 [31]: 6.74 mg/L (≈ 14.8 µM)

IC50 [32]: 6.4 µM
inhibition [33]: > 100%
SMILES: COc1ccc(C(=O)OC[C@H]2O[C@H](O[C@]3(CO)O[C@H](CO)[C@@H](O)[C@@H]3OC(=O)/C=C/c3cc(OC)c(OC)c(OC)c3)[C@H](O)[C@@H](O)[C@@H]2O)cc1

SMILES: CCCCCCCCCCNC(=O)/C=C/c1cc(OC)c(OC)c(OC)c1
IC50 [34]: 5 µM
IC50 [35]: 5.6 µM
IC50 [36]: 6.7 µM
inhibition in vivo at 5 mg/kg [37]: 80%
